Results published in paper PMC9663854, “AadA36, a novel chromosomal aminoglycoside nucleotidyltransferase from a clinical isolate of Providencia stuartii” (Frontiers in Microbiology, 2022).

System: T1, AadA36
T1 construct: N-terminal His-tag removed with thrombin
Assay: coupled NADPH assay at […] nm (UDP-glucose pyrophosphorylase, phosphoglucomutase, glucose-6-phosphate dehydrogenase), Michaelis-Menten fit
Format: biochemical, Providencia stuartii
Conditions: 50 mM HEPES pH 7.5, 10 mM MgCl2, 1 mM ATP, 0.2 mM DTT, substrate 5-150 μM

## [H]/N=C(/N)N[C@H]1[C@H](O)[C@@H](O)[C@H](O[C@@H]2O[C@@H](C)[C@](O)(C=O)[C@H]2O[C@@H]2O[C@@H](CO)[C@H](O)[C@@H](O)[C@@H]2NC)[C@@H](N/C(N)=N\[H])[C@@H]1O [streptomycin]
  Km: 59.5 ± 14.1 µM

## CN[C@@H]1[C@H](O)[C@H](NC)[C@H]2O[C@@]3(O)C(=O)C[C@@H](C)O[C@H]3O[C@@H]2[C@H]1O [spectinomycin]
  Km: 49.1 ± 12.8 µM
